The test system of series [1] is β-actin gene. The series is classed as cell-based, human. As to conditions: 7 days. How it is done: (§1) Low passage number HepG2 cells, obtained from American Tissue Culture Collection (ATCC, Manassas, Va.) were seeded at 5,000 cells/well in collagen-coated 96-well plates. Test compounds were added to the media to obtain a final concentration of 10 μM. On culture day 7, cellular nucleic acids were prepared by using commercially available columns (RNeasy 96 kit, Qiagen). […] The mitochondrial cytochrome C oxidase subunit II (COXII) gene and the β-actin or rRNA gene were amplified from 5 μL with a multiplex Q-PCR protocol using the suitable primers and probes for both target and reference (designed using the Primer Express software, Applied Biosystems); • for COXII. • sense primer 5′-[…]-3′ (Sequence 7); • probe 5′-TET-[…]-TAMRA-3′ (Sequence 8); and • antisense probe 5′-[…]-3′ (Sequence 9); • for exon 3 of β-actin (GenBank E01094): • sense primer 5′-[…]-3′ (Sequence 10); • probe 5′-6FAM-[…]-TAMRA-3′ (Sequnece 11); and • antisense probe 5′-[…]-3′ (Sequence 12).
(§2) The rRNA gene primers and probes were purchased from Applied Biosystems. Standard curves using 1-log diluted total HepG2 DNA were linear over more than 5 logs. In addition, efficiencies of target (COXII DNA) and reference (β-actin DNA or rRNA) amplification were approximately equal, because the slope of the ΔCt line (Ct β-actin minus Ct mitochondrial) was less than 0.1 (not shown). Since equal amplification efficiencies were obtained for both genes, the comparative cycle threshold (Ct) method was used to investigate potential inhibition of the mitochondrial DNA polymerase γ. The comparative Ct method uses arithmetic formulas in which the amount of target (COXII gene) is normalized to an endogenous reference (β-actin gene or rRNA gene) and is relative to a calibrator (no drug control at day 7). The arithmetic formula for this approach is given by 2-ΔΔCt (User bulletin # 2, Applied Biosystems).
(§3) In order to study the consequences of possible inhibitory effects of these compounds on host DNA polymerases, nuclear and rnitochondrial DNA levels were quantified and compared to no-treatment controls. Cells were incubated for 7 days with 10 μM of each compound, followed by total nucleic acid extractions and multiplex Q-PCR of the rRNA gene and the mitochondrial COXII gene. Nucleic acids from cells exposed to the control compounds were also amplified in multiplex for mitDNA and the β-actin gene. The results are presented in Table 4 using the comparative Ct method.

In series [2] the test system is rRNA gene. The class given is cell-based, human. As to conditions: HepG2, 10 μM, 7 days. The method, then: Low passage number HepG2 cells, obtained from American Tissue Culture Collection (ATCC, Manassas, Va.) were seeded at 5,000 cells/well in collagen-coated 96-well plates. Test compounds were added to the media to obtain a final concentration of 10 μM. On culture day 7, cellular nucleic acids were prepared by using commercially available columns (RNeasy 96 kit, Qiagen).
The rRNA gene primers and probes were purchased from Applied Biosystems. […] The comparative Ct method uses arithmetic formulas in which the amount of target (COXII gene) is normalized to an endogenous reference (β-actin gene or rRNA gene) and is relative to a calibrator (no drug control at day 7). The arithmetic formula for this approach is given by 2-ΔΔCt (User bulletin # 2, Applied Biosystems).
In order to study the consequences of possible inhibitory effects of these compounds on host DNA polymerases, nuclear and rnitochondrial DNA levels were quantified and compared to no-treatment controls. Cells were incubated for 7 days with 10 μM of each compound, followed by total nucleic acid extractions and multiplex Q-PCR of the rRNA gene and the mitochondrial COXII gene. Nucleic acids from cells exposed to the control compounds were also amplified in multiplex for mitDNA and the β-actin gene.

Series [3] concerns mitochondrial cytochrome C oxidase subunit II (COXII) gene. The series is classed as cell-based, human. As to conditions: HepG2, 10 μM, 7 days; for COXIINβ-actin DNA (range) relative to control: COXII DNA normalized to β-actin DNA.
Description: The Q-RT-PCR technology was also used to evaluate potential mitochondrial γ-DNA polymerase inhibition by the compounds of the present invention in relevant human cells. […] Since active nucleoside compounds in the triphosphate form lack a 3′-OH, thereby stopping virus replication by chain termination, there is a concern that these nucleoside analogues are also substrates for the human DNA polymerase γ, resulting in inhibition of mitochondrial DNA replication and subsequently toxic side effects (11, 19). In an attempt to provide direct quantifiable data on mitochondrial DNA levels intracellular, a Q-PCR technology was designed and relative quantification of COXII DNA levels were calculated using the comparative Ct method. […] Also, in agreement with previous observations, no changes in normalized mitochondrial DNA levels were observed after FIAU and D4T treatment (6, 8, 23).
as §1, §2, §3

The subject of series [4] is human PBM cells. Kind of series: in vitro. The class given is cell-based. The method, then:
The compounds were evaluated for their potential toxic effects on uninfected PHA-stimulated human PBM cells, in CEM (T-lymphoblastoid cell line obtained from American Type Culture Collection, Rockville, Md.) and Vero (African green monkey kidney) cells. PBM cells were obtained from whole blood of healthy seronegative donors (HIV-1 and hepatitis B virus) by single-step Ficoll-Hypaque discontinous gradient centrifugation. […] All of the cells were plated in 96-well cell culture plates containing ten-fold serial dilutions of the test drug. […] At the end of incubation, MTT tetrazolium dye solution (Cell titer 96®, Promega, Madison, Wis.) was added to each well and incubated overnight. The reaction was stopped with stop solubilization solution (Promega, Madison, Wis.). The plates were incubated for 5 hours to ensure that the formazan crystals were dissolved. The plates were read at a wavelength of 570 nm using an ELISA plate reader (Bio-tek instruments, Inc., Winooski, Vt., Model # EL 312e). […] Bookmark not defined.

Series [5] concerns the target T1, adenosine deaminase (EC.3.5.4.4. from calf intestinal mucosa) (Bos taurus, UniProt P56658).
T1 sequence (P56658 1-363): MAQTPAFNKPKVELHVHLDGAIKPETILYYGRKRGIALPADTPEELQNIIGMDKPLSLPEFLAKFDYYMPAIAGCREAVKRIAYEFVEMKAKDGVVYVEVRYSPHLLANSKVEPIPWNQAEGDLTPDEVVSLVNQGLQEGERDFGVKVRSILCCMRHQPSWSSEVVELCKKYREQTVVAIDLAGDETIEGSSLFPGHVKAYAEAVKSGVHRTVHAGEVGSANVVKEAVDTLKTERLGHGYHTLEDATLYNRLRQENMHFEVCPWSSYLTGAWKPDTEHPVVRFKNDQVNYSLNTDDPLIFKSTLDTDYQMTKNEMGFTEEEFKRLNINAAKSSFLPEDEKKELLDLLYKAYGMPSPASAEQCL
Kind of series: in vitro. The method, then: Assays were performed at 25° C. in phosphate buffer solution (pH 7.4) with substrate concentrations in the range of 15-100 μM and with 0.15 unit of adenosine deaminase (EC.3.5.4.4. from calf intestinal mucosa). The assays were monitored with a UV spectrometer at 265 nm. Initially, the qualitative assays were performed with D-β-2′-F-4′-S-d4A 24 (200 μM) in the presence of 0.24 unit of adenosine deaminase for 120 minutes to determine whether it is a substrate of this enzyme. The concentration (ct) of each substrate at a certain time (t) was calculated from the absorbance (At) at that time (t), where it was assumed that the total change of absorbance (A0−A∞) was directly related to the disappearance of the substrate.^35 Initial hydrolysis rates for each substrate concentration were measured manually through graphical curve fitting of the concentration versus time data for reaction of each substrate. From Lineweaver-Burke plot of these initial rates, Vmax (maximum velocity) and KM (Michaelis constant) were obtained for each substrate and kcat was also calculated with 0.15 unit of the enzyme (M.W. 33,000) in 2 mL of buffer solution.

Series [6] concerns Vero (African green monkey kidney) cells. Kind of series: in vitro. The series is classed as cell-based. The method, then: (§4) The compounds were evaluated for their potential toxic effects on uninfected PHA-stimulated human PBM cells, in CEM (T-lymphoblastoid cell line obtained from American Type Culture Collection, Rockville, Md.) and Vero (African green monkey kidney) cells. PBM cells were obtained from whole blood of healthy seronegative donors (HIV-1 and hepatitis B virus) by single-step Ficoll-Hypaque discontinous gradient centrifugation. Log phase Vero, CEM and PHA-stimulated human PBM cells were seeded at a density of 5×10^3, 2.5×10^3 and 5×10^4 cells/well respectively. All of the cells were plated in 96-well cell culture plates containing ten-fold serial dilutions of the test drug. The cultures were incubated for 3, 4 and 5 days for Vero, CEM, and PBM cells, respectively in a humidified 5% CO2-air at 37° C. At the end of incubation, MTT tetrazolium dye solution (Cell titer 96®, Promega, Madison, Wis.) was added to each well and incubated overnight. The reaction was stopped with stop solubilization solution (Promega, Madison, Wis.). The plates were incubated for 5 hours to ensure that the formazan crystals were dissolved. The plates were read at a wavelength of 570 nm using an ELISA plate reader (Bio-tek instruments, Inc., Winooski, Vt., Model # EL 312e). […] Bookmark not defined.

The test system of series [7] is CEM (T-lymphoblastoid cell line). The class given is cell-based. How it is done: as §4
Series [8] deals with HIV-1LAI. As to the kind of experiment: HIV assay in human PBM cells (RT activity of supernatant). As to conditions: 5 days, read-out: Anti-HIV-1 Activity (EC50). The class given is cell-based. The source says:
Human peripheral blood mononuclear (PBM) cells (obtained from Atlanta Red Cross) were isolated by Ficoll-Hypaque discontinuous gradient centrifugation from healthy seronegative donors. Cells were stimulated with phytohemagglutinin A (Difco, Sparks, Md.) for 2-3 days prior to use. HIV-1LAI obtained from the Centers for Disease Control and Prevention (Atlanta, Ga.) was used as the standard reference virus for the antiviral assays. The molecular infetious clones HIV-1xxBru and HIV-1M184Vpin were obtained from Dr. John Mellors (University of Pittsburgh). Infections were done in bulk for one hour, either with 100 TCID50/1×10^7 cells for a flask (T25) assay or with 200 TCID50/6×10^5 cells/well for a 24 well plate assay. Cells were added to a plate or flask containing a ten-fold serial dilution of the test compound. Assay medium was RPMI-1640 supplemented with heat inactivated 16% fetal bovine serum, 1.6 mM L-glutamine, 80 IU/ml penicillin, 80 μg/ml streptomycin, 0.0008% DEAE-Dextran, 0.045% sodium bicarbonate, and 26 IU/ml recombinant interleukin-2 (Chiron Corp, Emeryville, Calif.). AZT was used as a positive control for the assay. Untreated and uninfected PBM cells were grown in parallel at equivalent cell concentrations as controls. The cell cultures were maintained in a humidified 5% CO2-air at 37° C. for 5 days and supernatants were collected for reverse transcriptase (RT) activity.
Supernatants were centrifuged at 12,000 rpm for 2 hours to pellet the virus. The pellet was solubilized with vortexing in 100 μl virus solubilization buffer (VSB) containing 0.5% Triton X-100, 0.8 M NaCl, 0.5 mM phenylmethylsulfonyl fluoride, 20% glycerol, and 0.05 M Tris, pH 7.8. Ten μL of each sample were added to 75 μL RT reaction mixture (0.06 M Tris, pH 7.8, 0.012 M MgCl2, 0.006 M dithiothreitol, 0.006 mg/ml poly (rA)n, oligo (dT)12-18, 96 μg/ml dATP, and 1 μM of 0.08 mCi/ml ^3H-thymidine triphosphate (Moravek Biochemicals, Brea, Calif.) and incubated at 37° C. for 2 hours. The reaction was stopped by the addition of 100 μL 10% trichloroacetic acid containing 0.05% sodium pyrophosphate. The acid insoluble product was harvested onto filter paper using a Packard Harvester (Meriden, Conn.), and the RT activity was read on a Packard Direct Beta Counter (Meriden, Conn.). The RT results were expressed in counts per minute (CPM) per milliliter.

Read-outs that look alike come from different tables or passages of the source. Marks after values point to notes of the source that are not given here.

Turning to `Nc1ccn(C2CSC(CO)O2)c(=O)n1` (single isomer, unassigned; (+)) [(+)-BCH-189, (+)-β-2′,3′-dideoxy-3′-thiacytidine], the “Average ΔCt ± SD β-actin DNA” value in series [1] (HepG2, 10 μM) is recorded as −0.36 ± 0.31. For the same molecule, in series [2], the “Average ΔCt ± SD rDNA” value is recorded as −0.14 ± 0.61 and the “Average ΔΔCt ± SD rDNA-β-actin” value was determined as 0.23 ± 0.39. The “COXIINrDNA (range) relative to control” value in series [3] (COXII DNA normalized to rDNA, 2-ΔΔCt) was 0.20 (0.13-0.32). In series [3] (2-ΔΔCt), the “COXIINβ-actin DNA (range) relative to control” value was 0.17 (0.14-0.22). In series [3], the “Average ΔΔCt ± SD COXII-rDNA” value is on record as 2.3 ± 0.66^d; the “Average ΔΔCt ± SD COXII-β-actin” value is given as 2.53 ± 0.36^d; the “effect on (normalized) mitochondrial COXII DNA levels, in words” value was “reduce rnitochondrial COXII DNA levels”.
In the case of `Nc1nc2c(ncn2COCCO)c(=O)[nH]1` [ACV, 9-(2-hydroxyethoxymethyl)guanine], the “Average ΔCt ± SD β-actin DNA” value in series [1] (human, 10 μM) came to 0.17 ± 0.01. Also, in series [3] (2-ΔΔCt), the “COXIINβ-actin DNA (range) relative to control” value is 1.45 (1.34-1.52). Besides, in [3], the “Average ΔCt ± SD COXII DNA” value is listed as −0.37 ± 0.08 and the “Average ΔΔCt ± SD COXII-β-actin” value is given as −0.54 ± 0.06.
On to `Cc1cn([C@@H]2CC(F)(F)[C@H](CO)O2)c(=O)[nH]c1=O` [Compound 26, 1-(2,3-Dideoxy-3,3-difluoro-β-L-ribofuranosyl)thymine], for which the melting point is 140 °C (dec.).
Turning to `Cc1cn([C@@H]2C=C(F)[C@H](CO)O2)c(=O)[nH]c1=O` [Compound 28, 1-(2,3-dideoxy-3-fluoro-β-L-glycero-pent-2-eno-furanosyl)thymine], the melting point is 146 to 148 °C (dec.).
As for `Nc1ncnc2c1ncn2[C@@H]1S[C@H](CO)C=C1F` [Compound D-27, (−)-9-[(1R,4S)-2,3-dideoxy-2,3-didehydro-2-fluoro-4-thio-β-D-ribofuranosyl]-adenine], the IC50 in series [4], in [6] and in [7] was more than 100 µM throughout. In series [5] (25° C., pH 7.4, 0.15 unit of enzyme), the catalytic constant (kcat) was 0.94 s⁻¹. For the same molecule, in [5] (25° C., phosphate buffer pH 7.4, substrate of ADA), the Km was 18.3 µM. The t½ in series [5] (bovine) is 33 min. In series [8], the 50% effective concentration (EC50) is 8.1 µM.

As usually defined, the melting point is the temperature, or range, at which the solid turns liquid. As usually defined, the IC50 is the concentration needed to halve the response being measured. For orientation: kcat means the number of substrate molecules converted per active site and unit of time at saturation. Usually Km stands for the concentration of substrate that gives half-maximal velocity. One may read the t½ as the time needed for the level to fall by half in the phase considered. For orientation: EC50 means the concentration giving half of the maximal effect.

The values above are taken from patent US6949522B2, “β-2′- or 3′-halonucleosides” (Pharmasset, Inc., priority 2001, dated 2005).
